# Tested on: GBA mutant human fibroblasts GM008760
# Test: Glucosylceramide lowering assay
# Format: cell-based
# Settings: Homo sapiens, Fibroblast, 96 h; 10 μM test compound, 4 days culture; GlcCer (C16:0)/Cer (C16:0) molar ratio of test compound group relative to DMSO control group x100; smaller value = glucosylceramide lowering
# Procedure: Glucosylceramide Lowering Assay
# Using GBA mutant human fibroblasts containing mutated glucosylceramidase, the effect of test compounds on glucosylceramide reduction was evaluated.
# GBA mutant human fibroblasts GM008760 (Coriel Institute) were seeded in a 96-well multiwell plate at a density of 5,000 cells/100 μL culture solution/well. GlutaMAX (Thermo Fishcer Scientific), penicillin-streptomycin, and Minimum Essential Media (Thermo Fishcer Scientific) supplemented with 15% fetal bovine serum were used as a culture solution. After culturing for 2 days, a 10 mM DMSO solution of the test compound diluted with the culture solution was added to a 96-well plate by 100 μL to adjust a final test compound concentration to 10 μM. After culturing the cells for 4 days in the presence of the test compound, the culture solution was removed, and the cells adhered to the 96-well plate were washed with a phosphate buffer (ThermoFisher Scientific, product number 14190-144). A solvent composed of 50% ethanol and 50% isopropanol was added to the 96-well plate by 100 μL, and the intracellular lipids were dissolved by pipetting. A solution prepared by dissolving N-Octadecanoyl-D35-psychosine (50 ng/mL, Matreya LLC Inc.) as an internal standard in 50% ethanol and 50% isopropanol was added to the sample in an equal volume, and 2.5 μL of the centrifuged supernatant was used as the test compound group.
# In the same manner as above, a control group was prepared by using DMSO instead of the 10 mM DMSO solution of the test compound.
# For the test compound group and the control group, molar concentrations of glucosylceramide [GlcCer (C16:0)] and ceramide [Cer (C16:0)] were quantified using Rapidfire-MS/MS (API-5000, Turbo-ESI, SRM), and the glucosylceramide lowering effect of the test compound group relative to the control group was evaluated by the following formula. (GlcCer/Cer of test compound group)/(GlcCer/Cer of control group)×100 wherein GlcCer/Cer is the ratio of the molar concentration of glucosylceramide to that of ceramide.
# In this test, when the numerical value obtained by the above calculation formula is small, glucosylceramide is metabolized to ceramide by the test compound, or the synthesis of glucosylceramide from ceramide is inhibited by the test compound, that is, it can be said that the test compound has a glucosylceramide lowering effect.
row,SMILES,activity at 10 µM [%]
1,"Cc1cn(C)c(=O)c2c(C(=O)N3CC4CC4(c4ccc(OC(F)(F)F)cc4)C3)cn(C)c12 (stereo not shown) [Example 130, 1,5,7-trimethyl-3-((1-(4-(trifluoromethoxy)phenyl)-3-azabicyclo[3.1.0]hex-3-yl)carbonyl)-1,5-dihydro-4H-pyrrolo[3,2-c]pyridin-4-one]",21
2,"Cc1cn(C)c(=O)c2c(C(=O)N3CC4CC4(c4cccc(OC(F)(F)F)c4)C3)cn(C)c12 (stereo not shown) [Example 131, 1,5,7-trimethyl-3-((1-(3-(trifluoromethoxy)phenyl)-3-azabicyclo[3.1.0]hex-3-yl)carbonyl)-1,5-dihydro-4H-pyrrolo[3,2-c]pyridin-4-one]",63
3,"Cc1cn(C)c(=O)c2c(C(=O)N3CC4CC4(c4ccccc4C(F)(F)F)C3)cn(C)c12 (stereo not shown) [Example 137, 1,5,7-trimethyl-3-((1-(2-(trifluoromethyl)phenyl)-3-azabicyclo[3.1.0]hex-3-yl)carbonyl)-1,5-dihydro-4H-pyrrolo[3,2-c]pyridin-4-one]",64
4,"Cc1cn(C)c(=O)c2c(C(=O)N3CC4CC4(c4ccc(C(F)(F)F)c(F)c4)C3)cn(C)c12 (stereo not shown) [Example 138, 3-((1-(3-fluoro-4-(trifluoromethyl)phenyl)-3-azabicyclo[3.1.0]hex-3-yl)carbonyl)-1,5,7-trimethyl-1,5-dihydro-4H-pyrrolo[3,2-c]pyridin-4-one]",39
5,"Cc1cn(C)c(=O)c2c(C(=O)N3CC4CC4(c4ccc(OC(F)(F)F)c(F)c4)C3)cn(C)c12 (stereo not shown) [Example 139, 3-((1-(3-fluoro-4-(trifluoromethoxy)phenyl)-3-azabicyclo[3.1.0]hex-3-yl)carbonyl)-1,5,7-trimethyl-1,5-dihydro-4H-pyrrolo[3,2-c]pyridin-4-one]",37
6,"Cc1cn(C)c(=O)c2c(C(=O)N3CC4CC4(c4cc(Cl)cc(C(F)(F)F)c4)C3)cn(C)c12 (stereo not shown) [Example 140, 3-((1-(3-chloro-5-(trifluoromethyl)phenyl)-3-azabicyclo[3.1.0]hex-3-yl)carbonyl)-1,5,7-trimethyl-1,5-dihydro-4H-pyrrolo[3,2-c]pyridin-4-one]",49
7,"Cc1cn(C)c(=O)c2c(C(=O)N3CC4CC4(c4ccc(Cl)c(C(F)(F)F)c4)C3)cn(C)c12 (stereo not shown) [Example 141, 3-((1-(4-chloro-3-(trifluoromethyl)phenyl)-3-azabicyclo[3.1.0]hex-3-yl)carbonyl)-1,5,7-trimethyl-1,5-dihydro-4H-pyrrolo[3,2-c]pyridin-4-one]",47
8,"Cc1ccc(C23CN(C(=O)c4cn(C)c5c(C)cn(C)c(=O)c45)CC2C3(F)F)cc1 (stereo not shown) [Example 146, 3-((6,6-difluoro-1-(4-methylphenyl)-3-azabicyclo[3.1.0]hex-3-yl)carbonyl)-1,5,7-trimethyl-1,5-dihydro-4H-pyrrolo[3,2-c]pyridin-4-one]",65
9,"Cc1cn(C)c(=O)c2c(C(=O)N3CC4CC4(c4ccccc4OC(F)(F)F)C3)cn(C)c12 (stereo not shown) [Example 151, 1,5,7-trimethyl-3-((1-(2-(trifluoromethoxy)phenyl)-3-azabicyclo[3.1.0]hex-3-yl)carbonyl)-1,5-dihydro-4H-pyrrolo[3,2-c]pyridin-4-one]",46
10,"Cc1cn(C)c(=O)c2c(C(=O)N3CCC4(c5ccc(Cl)cc5)C(C3)C4(F)F)cn(C)c12 (stereo not shown) [Example 153, 3-((6-(4-chlorophenyl)-7,7-difluoro-3-azabicyclo[4.1.0]hept-3-yl)carbonyl)-1,5,7-trimethyl-1,5-dihydro-4H-pyrrolo[3,2-c]pyridin-4-one]",60
11,"Cc1cn(C)c(=O)c2c(C(=O)N3CCC4(c5cccc(Cl)c5)C(C3)C4(F)F)cn(C)c12 (stereo not shown) [Example 155, 3-((6-(3-chlorophenyl)-7,7-difluoro-3-azabicyclo[4.1.0]hept-3-yl)carbonyl)-1,5,7-trimethyl-1,5-dihydro-4H-pyrrolo[3,2-c]pyridin-4-one]",53
12,"Cc1cn(C)c(=O)c2c(C(=O)N3CCC(F)(c4ccc(Cl)cc4)C3)cn(C)c12 (stereo not shown) [Example 168, 3-((3-(4-chlorophenyl)-3-fluoropyrrolidin-1-yl)carbonyl)-1,5,7-trimethyl-1,5-dihydro-4H-pyrrolo[3,2-c]pyridin-4-one]",40
13,"Cc1cn(C)c(=O)c2c(C(=O)N3CCC(Oc4cccc(C(F)(F)F)c4)CC3)cn(C)c12 [Example 176, 1,5,7-trimethyl-3-((4-(3-(trifluoromethyl)phenoxy)piperidin-1-yl)carbonyl)-1,5-dihydro-4H-pyrrolo[3,2-c]pyridin-4-one]",56
14,"Cc1cn(C)c(=O)c2c(C(=O)N3CCC(Oc4ccc(Cl)c(Cl)c4)CC3)cn(C)c12 [Example 178, 3-((4-(3,4-dichlorophenoxy)piperidin-1-yl)carbonyl)-1,5,7-trimethyl-1,5-dihydro-4H-pyrrolo[3,2-c]pyridin-4-one]",42
15,"Cc1cn(C)c(=O)c2c(C(=O)N3CCC(Oc4cccc(Cl)c4)CC3)cn(C)c12 [Example 188, 3-((4-(3-chlorophenoxy)piperidin-1-yl)carbonyl)-1,5,7-trimethyl-1,5-dihydro-4H-pyrrolo[3,2-c]pyridin-4-one]",65
16,"Cc1cn(C)c(=O)c2c(C(=O)N3CCC(Oc4ccc(Cl)cc4)CC3)cn(C)c12 [Example 189, 3-((4-(4-chlorophenoxy)piperidin-1-yl)carbonyl)-1,5,7-trimethyl-1,5-dihydro-4H-pyrrolo[3,2-c]pyridin-4-one]",36
17,"Cc1cn(C)c(=O)c2c(C(=O)N3CCC(Oc4ccc(C(F)(F)F)cc4)CC3)cn(C)c12 [Example 190, 1,5,7-trimethyl-3-((4-(4-(trifluoromethyl)phenoxy)piperidin-1-yl)carbonyl)-1,5-dihydro-4H-pyrrolo[3,2-c]pyridin-4-one]",29
18,"Cc1cn(C)c(=O)c2c(C(=O)N3C[C@H]4C[C@@]4(c4ccc(Cl)c(Cl)c4)C3)cn(C)c12 [Example 205, 3-(((1R,5S)-1-(3,4-dichlorophenyl)-3-azabicyclo[3.1.0]hex-3-yl)carbonyl)-1,5,7-trimethyl-1,5-dihydro-4H-pyrrolo[3,2-c]pyridin-4-one]",62
19,"Cc1cn(C)c(=O)c2c(C(=O)N3C[C@@H]4C[C@]4(c4ccc(Cl)c(Cl)c4)C3)cn(C)c12 [Example 206, 3-(((1S,5R)-1-(3,4-dichlorophenyl)-3-azabicyclo[3.1.0]hex-3-yl)carbonyl)-1,5,7-trimethyl-1,5-dihydro-4H-pyrrolo[3,2-c]pyridin-4-one]",49
20,"Cc1cn(C)c(=O)c2c(C(=O)NCc3ccc(-c4ccc(Cl)cc4)s3)cn(C)c12 [Example 217, N-((5-(4-chlorophenyl)-2-thienyl)methyl)-1,5,7-trimethyl-4-oxo-4,5-dihydro-1H-pyrrolo[3,2-c]pyridine-3-carboxamide]",64
21,"Cc1cn(C)c(=O)c2c(C(=O)NC(C)(C)c3ccccc3)cn(C)c12 [Example 219, 1,5,7-trimethyl-4-oxo-N-(2-phenylpropan-2-yl)-4,5-dihydro-1H-pyrrolo[3,2-c]pyridine-3-carboxamide]",63
22,"Cc1cn(C)c(=O)c2c(C(=O)NC(C)(C)c3ccc(Cl)cc3)cn(C)c12 [Example 221, N-(2-(4-chlorophenyl)propan-2-yl)-1,5,7-trimethyl-4-oxo-4,5-dihydro-1H-pyrrolo[3,2-c]pyridine-3-carboxamide]",44
